Assay results: patent publication US20100261706A1, “SUBSTITUTED TETRACYCLIC 1H-INDENO [1,2-B]PYRIDINE-2(5H)-ONE ANALOGS THEREOF AND USES THEREOF” (INOTEK PHARMACEUTICALS CORPORATION, priority 2008, published 2010)
Counter-ions that a name gives are not always drawn.

How the values were obtained:
PARP = target: T1, PARP (Mus musculus, UniProt P11103); assay: PARP activity in cultured macrophages, whole-cell based assay (3H-NAD+ incorporation after hydrogen peroxide); settings: murine RAW macrophages, 1 hour pretreatment, hydrogen peroxide 0.5 mM
T1 construct: PARP Activity in Cultured Macrophages, Using a Whole-Cell Based Assay; endogenous in cells; host or cells: murine RAW macrophages (ATCC)
Method: Effect of Tetracyclic 1H-indeno[1,2-b]pyridine-2(511)-one Analogs on PARP Activity in Cultured Macrophages, Using a Whole-Cell Based Assay
The murine RAW macrophages (ATCC, American Type Culture Collection, Manassas, Va.) were grown in […] (Invitrogen Life Technologies; Carlsbad, Calif.) medium supplemented with 10% heat-inactivated FBS, 2 mM L-glutamine, and 100 U/ml of penicillin and streptomycin. Cells, between passages 5 and 15, were seeded at a density of 250,000 cells/well in 12 well plates and allowed to grow 48 hours before use. Growth medium was changed on the day of use. Cells were treated with a tetracyclic 1H-indeno[1,2-b]pyridine-2(5H)-one analog diluted in a growth medium supplemented with 10% fetal bovine serum (FBS) for 1 hour prior to the addition of hydrogen peroxide (0.5 mM) for a further 25 minutes. For the measurement of PARP activity, media was removed and replaced with 0.5 ml of the assay buffer (56 mM HEPES-pH 7.5, 28 mM KCl, 28 mM NaCl, 2 mM MgCl2, 0.01% digitonin, and 0.5 μCi/ml of ^3H-NAD^+) for 20 minutes. After aspirating the assay buffer, cells were lysed and transferred to eppendorf tubes containing 250 μl of 50% ice-cold trichloroacetic acid (TCA), which were then placed at 4° C. for 4 hours. Samples were centrifuged at 10,000 g for 10 minutes and supernatant removed. The pellets were washed twice with 500 μl of ice-cold 5% w/v TCA. The pellets were then solubilized in 250 μl of NaOH (0.1 M) containing 2% SDS overnight at 37° C. and the PARP activity was then determined by measuring the radioactivity incorporated using a Wallac scintillation counter. The solubilized protein (250 μl) was mixed with 5 ml of scintillation fluid (ScintiSafe Plus, Fisher Scientific) before being counted for 3 minutes. EC50 values were determined from a dose-response curve.

PARP-1 enzyme = target: T2, PARP-1 enzyme (Homo sapiens, UniProt P09874); assay: Purified PARP-1 enzyme inhibition assay (Trevigen kit, 96 well ELISA plates); assay type: biochemical
T2 construct: purchased Trevigen, Gaithersburg, Md
Method: Effect of Tetracyclic 1H-indeno[1,2-b]pyridine-2(5H)-one analogs on PARP Activity in purified PARP-1 enzyme assay
The potency of inhibition on purified PARP-1 enzyme was subsequently determined for selected compounds, and the potency was compared with INO-1001. The assay was performed in 96 well ELISA plates according to instructions provided with a commercially available PARP-1 inhibition assay kit (Trevigen, Gaithersburg, Md.). Briefly, wells were coated with 1 mg/ml histone (50 μl/well) at 4° C. overnight. Plates were then washed four times with PBS and then blocked by adding 50 μl Strep-Diluent (supplied with the kit). After incubation (1 h, 25° C.), the plates were washed four times with PBS. Appropriate dilutions of compound was combined with 2×PARP cocktail (1.95 mM NAD^+, 50 μM biotinylated NAD^+ in 50 mM TRIS pH 8.0, 25 mM MgCl2) and high specific activity PARP enzyme (both were supplied with the kit) in a volume of 50 μl. The reaction was allowed to proceed for 30 min at room temperature. After 4 washes in PBS, incorporated biotin was detected by peroxidase-conjugated streptavidin (1:500 dilution) and TACS Sapphire substrate. EC50 and IC50 values were determined from a dose-response curve.

T1 sequence (P11103 whole entry): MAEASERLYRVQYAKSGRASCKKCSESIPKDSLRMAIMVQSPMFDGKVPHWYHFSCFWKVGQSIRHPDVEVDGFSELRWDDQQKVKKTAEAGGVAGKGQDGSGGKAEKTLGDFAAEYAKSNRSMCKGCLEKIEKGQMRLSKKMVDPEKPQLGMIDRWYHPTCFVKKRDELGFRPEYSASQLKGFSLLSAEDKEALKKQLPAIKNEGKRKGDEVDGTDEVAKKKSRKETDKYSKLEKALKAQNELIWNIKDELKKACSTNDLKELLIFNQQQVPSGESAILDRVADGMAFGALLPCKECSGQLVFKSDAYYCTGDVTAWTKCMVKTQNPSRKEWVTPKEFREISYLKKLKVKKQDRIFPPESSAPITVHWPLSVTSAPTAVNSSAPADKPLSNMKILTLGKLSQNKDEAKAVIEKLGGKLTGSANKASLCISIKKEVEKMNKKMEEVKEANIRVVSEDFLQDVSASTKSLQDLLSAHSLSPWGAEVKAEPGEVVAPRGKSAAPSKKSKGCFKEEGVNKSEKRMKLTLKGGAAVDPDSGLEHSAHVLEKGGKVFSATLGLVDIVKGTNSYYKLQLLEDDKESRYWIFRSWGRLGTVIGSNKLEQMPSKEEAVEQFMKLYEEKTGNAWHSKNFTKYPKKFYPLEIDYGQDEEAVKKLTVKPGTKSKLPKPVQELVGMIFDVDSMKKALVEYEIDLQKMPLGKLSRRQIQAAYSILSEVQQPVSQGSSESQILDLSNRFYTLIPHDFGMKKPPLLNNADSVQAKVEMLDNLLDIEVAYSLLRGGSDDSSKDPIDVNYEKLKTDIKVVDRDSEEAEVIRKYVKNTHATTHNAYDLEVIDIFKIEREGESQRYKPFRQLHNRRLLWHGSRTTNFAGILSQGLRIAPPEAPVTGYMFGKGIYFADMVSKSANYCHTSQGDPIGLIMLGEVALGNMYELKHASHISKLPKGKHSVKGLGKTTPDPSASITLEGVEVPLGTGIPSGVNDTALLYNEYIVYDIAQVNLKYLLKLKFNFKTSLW
T2 sequence (P09874 whole entry): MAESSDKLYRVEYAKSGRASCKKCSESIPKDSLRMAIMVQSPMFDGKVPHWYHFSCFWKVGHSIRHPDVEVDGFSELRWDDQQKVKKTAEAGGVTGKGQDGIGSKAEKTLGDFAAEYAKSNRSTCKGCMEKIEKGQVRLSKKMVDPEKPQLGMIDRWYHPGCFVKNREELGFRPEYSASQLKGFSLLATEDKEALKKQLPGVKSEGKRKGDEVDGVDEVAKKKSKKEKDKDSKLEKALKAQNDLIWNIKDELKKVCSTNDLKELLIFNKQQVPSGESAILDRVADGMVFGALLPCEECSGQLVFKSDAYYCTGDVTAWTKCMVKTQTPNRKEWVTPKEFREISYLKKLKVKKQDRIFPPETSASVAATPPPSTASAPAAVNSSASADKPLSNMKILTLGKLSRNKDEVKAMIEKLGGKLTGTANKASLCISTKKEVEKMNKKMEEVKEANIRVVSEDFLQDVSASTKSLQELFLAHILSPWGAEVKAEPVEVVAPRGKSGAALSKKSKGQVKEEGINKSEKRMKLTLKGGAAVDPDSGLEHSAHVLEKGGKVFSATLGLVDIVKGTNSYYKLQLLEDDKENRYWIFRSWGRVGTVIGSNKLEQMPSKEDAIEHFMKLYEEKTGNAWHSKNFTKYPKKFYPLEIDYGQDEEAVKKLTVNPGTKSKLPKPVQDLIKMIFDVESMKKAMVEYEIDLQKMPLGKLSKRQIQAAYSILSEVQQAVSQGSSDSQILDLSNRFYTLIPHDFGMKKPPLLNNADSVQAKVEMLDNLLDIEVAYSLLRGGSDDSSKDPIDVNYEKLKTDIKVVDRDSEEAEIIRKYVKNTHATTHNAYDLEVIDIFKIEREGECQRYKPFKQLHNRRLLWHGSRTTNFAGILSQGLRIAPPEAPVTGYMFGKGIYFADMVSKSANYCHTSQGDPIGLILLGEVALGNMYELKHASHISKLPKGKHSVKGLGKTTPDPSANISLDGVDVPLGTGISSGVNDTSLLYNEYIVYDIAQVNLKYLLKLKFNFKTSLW

O=c1[nH]c2c(c3c1CCCC3)Cc1c(CN3CCC(O)CC3)cccc1-2 [Example 1, 10-((4-hydroxypiperidin-1-yl)methyl)-3,4,6,11-tetrahydro-1H-indeno[1,2-c]isoquinolin-5(2H)-one]
EC50 (PARP): 11.3 nM
IC50 (PARP-1 enzyme): 3.83 nM

O=c1[nH]c2c(c3c1CCCC3)Cc1c(CN3CCCCC3)cccc1-2 [Example 2, 10-(piperidin-1-ylmethyl)-3,4,6,11-tetrahydro-1H-indeno[1,2-c]isoquinolin-5(2H)-one]
EC50 (PARP): 1.52 nM
IC50 (PARP-1 enzyme): 5.15 nM

CCOC1CCN(Cc2cccc3c2Cc2c-3[nH]c(=O)c3c2CCCC3)CC1 [Example 9, 10-((4-ethoxypiperidin-1-yl)methyl)-3,4,6,11-tetrahydro-1H-indeno[1,2-c]isoquinolin-5(2H)-one]
EC50 (PARP): 12.7 nM
IC50 (PARP-1 enzyme): 93.9 nM

CC1CCN(Cc2cccc3c2Cc2c-3[nH]c(=O)c3c2CCCC3)CC1 [Example 20, 10-((4-methylpiperidin-1-yl)methyl)-3,4,6,11-tetrahydro-1H-indeno[1,2-c]isoquinolin-5(2H)-one mesylate]
EC50 (PARP): 4.1 nM
IC50 (PARP-1 enzyme): 5.2 nM

O=c1[nH]c2c(c3c1CCCC3)Cc1c(CN3CCC(N4CCCC4)CC3)cccc1-2 [Example 23, 10-((4-(pyrrolidin-1-yl)piperidin-1-yl)methyl)-3,4,6,11-tetrahydro-1H-indeno[1,2-c]isoquinolin-5(2H)-one]
EC50 (PARP): 20.9 nM
IC50 (PARP-1 enzyme): 12.7 nM

O=c1[nH]c2c(c3c1CCCC3)Cc1c(CNC3CCCC3)cccc1-2 [Example 26, 10-((cyclopentylamino)methyl)-3,4,6,11-tetrahydro-1H-indeno[1,2-c]isoquinolin-5(2H)-one]
EC50 (PARP): 5 nM
IC50 (PARP-1 enzyme): 3.4 nM

C[C@@H]1CN(c2cccc3c2Cc2c-3[nH]c(=O)c3c2CCCC3)C[C@H](C)O1 [Example 32, 10-(2,6-dimethylmorpholino)-3,4,6,11-tetrahydro-1H-indeno[1,2-c]isoquinolin-5(2H)-one]
EC50 (PARP): 100 nM
IC50 (PARP-1 enzyme): 23.1 nM

COCCNCc1ccc2c(c1)Cc1c-2[nH]c(=O)c2c1CCCC2 [Example 36, 9-((2-methoxyethylamino)methyl)-3,4,6,11-tetrahydro-1H-indeno[1,2-c]isoquinolin-5(2H)-one]
EC50 (PARP): 50 nM
IC50 (PARP-1 enzyme): 8.9 nM

CCCN1CCN(c2cccc3c2Cc2c-3[nH]c(=O)c3c2CCCC3)CC1 [Example 41, 10-(4-propylpiperazin-1-yl)-3,4,6,11-tetrahydro-1H-indeno[1,2-c]isoquinolin-5(2H)-one]
EC50 (PARP): 45 nM
IC50 (PARP-1 enzyme): 6.3 nM

COCCN1CCN(c2cccc3c2Cc2c-3[nH]c(=O)c3c2CCCC3)CC1 [Example 43, 10-(4-(2-methoxyethyl)piperazin-1-yl)-3,4,6,11-tetrahydro-1H-indeno[1,2-c]isoquinolin-5(2H)-one]
EC50 (PARP): 9 nM
IC50 (PARP-1 enzyme): 8.1 nM

O=c1[nH]c2c(c3c1CCCC3)Cc1cc(CNCCN3CCOCC3)ccc1-2 [Example 45, 9-((2-morpholinoethylamino)methyl)-3,4,6,11-tetrahydro-1H-indeno[1,2-c]isoquinolin-5(2H)-one]
EC50 (PARP): 25 nM
IC50 (PARP-1 enzyme): 5.5 nM

O=c1[nH]c2c(c3ccsc13)Cc1c(CNC3CCCC3)cccc1-2 [Example 48, 9-((cyclopentylamino)methyl)-5,10-dihydro-4H-indeno[1,2-b]thieno[3,2-d]pyridin-4-one]
EC50 (PARP): 10 nM
IC50 (PARP-1 enzyme): 27 nM

COCCN1CCN(c2cccc3c2Cc2c-3[nH]c(=O)c3cccnc23)CC1 [Example 49, 10-(4-(2-methoxyethyl)piperazin-1-yl)-6,11-dihydro-5H-indeno[1,2-h][1,6]naphthyridin-5-one]
EC50 (PARP): 22.7 nM
IC50 (PARP-1 enzyme): 55.7 nM

O=c1[nH]c2c(c3c1CCCC3)Cc1c(CNC3(CO)CCCC3)cccc1-2 [Example 50, 10-((1-(hydroxymethyl)cyclopentylamino)methyl)-3,4,6,11-tetrahydro-1H-indeno[1,2-c]isoquinolin-5(2H)-one]
EC50 (PARP): 5 nM
IC50 (PARP-1 enzyme): 6.3 nM

CC(C)(O)C(=O)Nc1cccc2c1Cc1c-2[nH]c(=O)c2c1CCCC2 [Example 51, 2-hydroxy-2-methyl-N-(5-oxo-2,3,4,5,6,11-hexahydro-1H-indeno[1,2-c]isoquinolin-10-yl)propanamide]
EC50 (PARP): 59 nM
IC50 (PARP-1 enzyme): > 250 nM

CSCCC(=O)Nc1cccc2c1Cc1c-2[nH]c(=O)c2c1CCCC2 [Example 52, 3-(methylthio)-N-(5-oxo-2,3,4,5,6,11-hexahydro-1H-indeno[1,2-c]isoquinolin-10-yl)propanamide]
EC50 (PARP): 55 nM
IC50 (PARP-1 enzyme): 73.6 nM

C[S+]([O-])CCC(=O)Nc1cccc2c1Cc1c-2[nH]c(=O)c2c1CCCC2 (centres unmarked) [Example 53, 3-(methylsulfinyl)-N-(5-oxo-2,3,4,5,6,11-hexahydro-1H-indeno[1,2-c]isoquinolin-10-yl)propanamide]
EC50 (PARP): 6 nM
IC50 (PARP-1 enzyme): 89.8 nM

O=c1[nH]c2c(c3sccc13)Cc1c(CNC3CCCC3)cccc1-2 [Example 55, 9-((cyclopentylamino)methyl)-5,10-dihydro-4H-indeno[1,2-b]thieno[2,3-d]pyridin-4-one]
EC50 (PARP): 34 nM
IC50 (PARP-1 enzyme): 41.2 nM

CN1CCN(c2cccc3c2Cc2c-3[nH]c(=O)c3cccnc23)CC1 [Example 56, 10-(4-methylpiperazin-1-yl)-6,11-dihydro-5H-indeno[1,2-d][1,6]naphthyridin-5-one]
EC50 (PARP): 9 nM
IC50 (PARP-1 enzyme): 19.9 nM

CCCCN1CCN(c2cccc3c2Cc2c-3[nH]c(=O)c3cccnc23)CC1 [Example 58, 10-(4-butylpiperazin-1-yl)-6,11-dihydro-5H-indeno[1,2-h][1,6]naphthyridin-5-one]
EC50 (PARP): 6.1 nM
IC50 (PARP-1 enzyme): 25.5 nM

CCN1CCN(c2cccc3c2Cc2c-3[nH]c(=O)c3cccnc23)CC1 [Example 59, 10-(4-ethylpiperazin-1-yl)-6,11-dihydro-5H-indeno[1,2-h][1,6]naphthyridin-5-one]
EC50 (PARP): 2.4 nM
IC50 (PARP-1 enzyme): 12.4 nM

CC(C)N1CCN(c2cccc3c2Cc2c-3[nH]c(=O)c3cccnc23)CC1 [Example 60, 10-(4-isopropylpiperazin-1-yl)-6,11-dihydro-5,1-indeno[1,2-h][1,6]naphthyridin-5-one]
EC50 (PARP): 37 nM
IC50 (PARP-1 enzyme): 19.2 nM

O=c1[nH]c2c(c3ncccc13)Cc1c-2cccc1N1CCN(CC2CC2)CC1 [Example 61, 10-(4-(cyclopropylmethyl)piperazin-1-yl)-6,11-dihydro-5H-indeno[1,2-h][1,6]naphthyridin-5-one]
EC50 (PARP): 46 nM
IC50 (PARP-1 enzyme): 27.9 nM

O=c1[nH]c2c(c3ncccc13)Cc1c(CNC3CCCC3)cccc1-2 [Example 62, 10-((cyclopentylamino)methyl)-6,11-dihydro-5H-indeno[1,2-h][1,6]naphthyridin-5-one]
EC50 (PARP): 13 nM
IC50 (PARP-1 enzyme): 28.1 nM

O=c1[nH]c2c(c3c1CCCC3)Cc1c(CN3CC=CCC3)cccc1-2 [Example 69, 10-((5,6-dihydropyridin-1(2H)-yl)methyl)-3,4,6,11-tetrahydro-1H-indeno[1,2-c]isoquinolin-5(2H)-one]
EC50 (PARP): 18.4 nM
IC50 (PARP-1 enzyme): 54.7 nM
